Patent US20070134733A1, “Raman signature probes and their use in the detection and imaging of molecular processes and structures” (Parallax Biosystems, Inc., priority 2003, published 2007)

These molecules were tested against T1, NADH-dependent enoyl acyl carrier reductase (FabI) (Escherichia coli, UniProt P0AEK4) (assay: FabI enzyme inhibition assay (NADH consumption, absorbance at 340 nm)). Settings: purified HIS-tagged FabI enzyme, NADH and substrate (e.g. Malonyl CoA or Crotonyl CoA).
T1 construct: made in house; host or cells: recombinant bacteria (strain from Dr. Charles Rock, St. Jude Children's Research Hospital)
Assay type: biochemical, bacteria
Source text: Prior to using the potential RSP compounds as probes to detect bacteria the modified compounds will be tested for their ability to inhibit FabI. As shown with numerous studies that have explored the structure activity relationship of other FabI inhibitor analogs, there is a good correlation between the ability of a compound to inhibit the enzyme and its affinity towards the enzyme (Seefeld et al., Bioorg. Med. Chem. Lett. 11 (2001) 2061-2065). Recombinant bacteria expressing a HIS-tagged FabI protein are available from Dr. Charles Rock at St. Jude Children's Research Hospital in Memphis Tenn. The overexpressed protein is readily purified as a bioactive enzyme using conventional Ni^2+ chromatographic methods (Heath & Rock, J. Biol. Chem. 270 (1995) 26538-26542). Enzyme assays will be performed as described by Bergler et al. (J. Biol. Chem. 269 (1994) 5493-5496). Briefly, purified HIS-tagged FabI enzyme is added to a reaction containing NADH and an appropriate substrate (e.g. Malonyl CoA or Crotonyl CoA). The reductase activity is assayed by monitoring the decrease in absorbance at 340 nm due to the consumption of NADH. The inhibitory activity of all RSPs will be compared with Compound 1.

T1 sequence (P0AEK4 whole entry): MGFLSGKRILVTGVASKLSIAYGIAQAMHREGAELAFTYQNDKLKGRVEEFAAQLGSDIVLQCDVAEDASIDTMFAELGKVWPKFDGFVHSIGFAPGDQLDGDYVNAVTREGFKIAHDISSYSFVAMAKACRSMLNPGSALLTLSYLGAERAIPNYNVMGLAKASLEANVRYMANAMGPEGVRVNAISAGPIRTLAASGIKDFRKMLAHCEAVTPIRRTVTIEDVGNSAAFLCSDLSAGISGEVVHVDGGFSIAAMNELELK

Row | SMILES | EC50 [nM]
1 | [2H]C([2H])([2H])C([2H])([2H])n1c2c(c3ccccc31)CCN(C(=O)c1ccc(Cl)cc1)C2 [Compound 1E] | 7830
2 | Nc1ccc(Cn2c3c(c4ccccc42)CCN(C(=O)c2ccc(O)cc2)C3)cc1 [Compound 1, reference compound] | 670
3 | N#Cc1ccc(Cn2c3c(c4ccccc42)CCN(C(=O)c2ccc(Cl)cc2)C3)cc1 [Compound 1A] | 2520
4 | N#Cc1ccc(Cn2c3c(c4ccccc42)CCN(C(=O)c2ccc(Br)cc2)C3)cc1 [Compound 1C] | 2530
5 | [2H]c1c([2H])c([2H])c(C(=O)N2CCc3c(n(Cc4ccc(F)cc4)c4ccccc34)C2)c([2H])c1[2H] [Compound 1B] | 1500
6 | CC#CCn1c2c(c3ccccc31)CCN(C(=O)c1ccc(Cl)cc1)C2 [Compound 1D] | 6010
